{"source": "patent US7297551B2", "about": "“Recombinant proteins and peptides for endotoxin biosensors, endotoxin removal, and anti-microbial and anti-endotoxin therapeutics” (priority 1998, dated 2007)", "key": {"[1]": {"target": "T1, SSCrFCES (LPS-binding domain of C. rotundicauda Factor C, rFCES amino acids 29-330, numbered as in SEQ ID NO: 4) (Carcinoscorpius rotundicauda, UniProt Q26422)", "T1 construct": "rFCES (amino acids 29-330); made in house; host or cells: Drosophila S2 cells", "T1 sequence (Q26422 29-330)": "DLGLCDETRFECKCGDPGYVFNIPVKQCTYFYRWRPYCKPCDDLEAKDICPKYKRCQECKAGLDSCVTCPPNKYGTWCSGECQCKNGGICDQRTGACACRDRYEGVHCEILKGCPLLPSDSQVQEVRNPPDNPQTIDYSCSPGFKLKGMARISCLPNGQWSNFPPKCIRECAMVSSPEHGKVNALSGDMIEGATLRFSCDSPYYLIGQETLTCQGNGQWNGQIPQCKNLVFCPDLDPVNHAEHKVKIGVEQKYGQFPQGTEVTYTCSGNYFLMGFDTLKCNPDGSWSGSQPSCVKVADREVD", "assay": "Surface plasmon resonance binding to immobilized lipid A", "details": "400 ng/100 ul SSCrFCES", "protocol": "Recognition of lipid A by the abovenamed secreted recombinant proteins and peptides was, performed with a BIAcore X™ biosensor instrument and an HPA sensor chip. Briefly, lipid A at 0.5 mg/ml in PBS was immobilized to a HPA sensor chip (Pharmacia) according to the manufacturer's specification. In all experiments, pyrogen-free PBS was used as the running buffer at a flow rate of 10 μl/min.\nWith purified SSCrFCES, 4 μg/ml was injected into the flow cell at a rate of 10 μl/min, and the binding response was measured as a function of time. Following injection of SSCrFCES, a solution of INDIA™ HisProbe™-HRP antibody, diluted in PBS to 400 μg/ml, was also injected to cause a shift in SPR in order to further confirm that SSCrFCES binds to lipid A. For regeneration, 100 mM of NaOH solution was injected for 5 minutes. Similar lipid A binding analysis was carried out with SSCrFCsushi-GFP fusion proteins."}, "[2]": {"target": "T2, rFC (full-length recombinant C. rotundicauda Factor C, CrFC21, from P. pastoris) (Carcinoscorpius rotundicauda, UniProt Q26422)", "T2 sequence (Q26422 1-1019)": "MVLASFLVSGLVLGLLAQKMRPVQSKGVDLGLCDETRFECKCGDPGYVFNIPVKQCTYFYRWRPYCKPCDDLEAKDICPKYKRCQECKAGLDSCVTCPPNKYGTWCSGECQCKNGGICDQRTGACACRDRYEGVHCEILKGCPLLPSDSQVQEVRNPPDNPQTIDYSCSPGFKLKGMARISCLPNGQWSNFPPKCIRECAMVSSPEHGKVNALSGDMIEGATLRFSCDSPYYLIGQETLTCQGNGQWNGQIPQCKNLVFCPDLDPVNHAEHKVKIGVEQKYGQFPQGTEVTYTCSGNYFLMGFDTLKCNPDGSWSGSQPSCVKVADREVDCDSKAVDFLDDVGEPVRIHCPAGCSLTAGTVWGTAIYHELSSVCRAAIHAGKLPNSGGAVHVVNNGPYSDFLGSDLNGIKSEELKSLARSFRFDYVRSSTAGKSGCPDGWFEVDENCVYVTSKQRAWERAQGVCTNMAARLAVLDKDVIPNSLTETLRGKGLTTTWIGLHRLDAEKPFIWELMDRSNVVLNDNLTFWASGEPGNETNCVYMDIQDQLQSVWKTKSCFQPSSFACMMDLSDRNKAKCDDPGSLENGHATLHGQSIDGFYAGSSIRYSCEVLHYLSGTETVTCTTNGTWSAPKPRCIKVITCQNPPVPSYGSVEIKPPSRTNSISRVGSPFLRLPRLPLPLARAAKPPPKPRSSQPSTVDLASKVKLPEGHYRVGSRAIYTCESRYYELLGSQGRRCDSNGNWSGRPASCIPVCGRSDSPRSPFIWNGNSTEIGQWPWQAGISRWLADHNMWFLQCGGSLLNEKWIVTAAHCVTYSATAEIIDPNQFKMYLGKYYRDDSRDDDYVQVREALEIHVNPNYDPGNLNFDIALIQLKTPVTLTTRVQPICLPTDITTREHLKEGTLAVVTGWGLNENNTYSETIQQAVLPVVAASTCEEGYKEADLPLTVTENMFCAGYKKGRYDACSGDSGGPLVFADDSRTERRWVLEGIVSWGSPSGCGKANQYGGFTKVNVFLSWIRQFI", "assay": "BIACORE X binding to immobilized lipid A", "details": "partially-pure rFC to lipid A 10:1 on a mass basis", "protocol": "(§1) The binding interactions between rFC and immobilized lipid A were monitored using the BIACORE X™ biosensor (Pharmacia Biotech). The BIACORE X™ sensor chip features a flat hydrophobic surface that allows the immobilization of ligand molecules. Thirty microliters of lipid A at 100 μg/ml were immobilized on each sensor chip to form a ligand surface. Biomax™-50 enriched samples of rFC, rFCEE and rFCSN, each at 1 mg/ml were injected at 10 μl/min for 3 min over the ligand surface. After each injection of the recombinant protein samples, the lipid A ligand surface was regenerated using 0.1 M NaOH. The ligand-binding was measured in relative response units (RU) for each sample, and calculated from the difference in RU at the baseline, viz., before injection of sample, and final experimental reading taken after sample injection and a 2-min wash. The percentage binding was thus determined."}, "[3]": {"target": "T3, rFCEE (truncated C. rotundicauda Factor C, CrFC21EE, amino acids 1-766, from P. pastoris) (Carcinoscorpius rotundicauda, UniProt Q26422)", "T3 construct": "Pichia pastoris, Biomax-50 enriched", "T3 sequence (Q26422 1-766)": "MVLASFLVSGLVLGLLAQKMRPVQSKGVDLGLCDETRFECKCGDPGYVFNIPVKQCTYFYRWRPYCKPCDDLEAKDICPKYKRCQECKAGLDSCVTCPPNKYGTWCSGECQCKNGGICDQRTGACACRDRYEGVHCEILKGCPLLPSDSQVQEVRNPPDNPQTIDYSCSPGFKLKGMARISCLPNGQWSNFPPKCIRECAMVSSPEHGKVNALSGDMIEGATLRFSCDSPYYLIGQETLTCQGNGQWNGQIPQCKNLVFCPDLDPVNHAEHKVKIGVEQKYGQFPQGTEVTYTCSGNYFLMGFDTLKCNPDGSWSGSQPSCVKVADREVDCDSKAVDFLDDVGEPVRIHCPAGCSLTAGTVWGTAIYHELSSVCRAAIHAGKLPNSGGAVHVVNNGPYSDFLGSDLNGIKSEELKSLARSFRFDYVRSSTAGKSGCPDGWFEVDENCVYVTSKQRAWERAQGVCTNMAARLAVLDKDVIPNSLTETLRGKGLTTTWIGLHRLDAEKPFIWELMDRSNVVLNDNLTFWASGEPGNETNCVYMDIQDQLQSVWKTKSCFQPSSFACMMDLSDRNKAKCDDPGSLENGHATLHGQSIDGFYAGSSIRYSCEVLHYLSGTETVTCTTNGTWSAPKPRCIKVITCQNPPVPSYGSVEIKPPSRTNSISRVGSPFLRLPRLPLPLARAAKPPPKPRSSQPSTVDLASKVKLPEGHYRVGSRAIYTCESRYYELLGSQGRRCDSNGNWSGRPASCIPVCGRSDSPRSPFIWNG", "assay": "BIACORE X binding to immobilized lipid A", "details": "Biomax-50 enriched, normalized with rFCSN", "protocol": "as §1"}}, "data": [{"substance": "lipid A", "values": [{"measurement": "saturation of lipid A", "setting": "[1]", "value": 92, "unit": "%"}, {"measurement": "net response, lipid A bound", "setting": "[2]", "value": "approximately 30%"}, {"measurement": "net response, lipid A bound", "setting": "[3]", "value": 15, "unit": "%"}]}]}
